Experimental data from patent US9801383B2, “Synergistic pesticidal compositions and related methods” (priority 2013, dated 2017).

Columns and labels:
Format in all cases: in vivo
[1] = test system: diamondback moth, Plutella xylostella; experiment: Cabbage plant track-sprayer bioassay against diamondback moth; conditions: single active, 0.0025 weight %, second instar
Experimental: A pesticidal composition was prepared by thoroughly mixing about 0.04 weight % of N-(3-chloro-1-(pyridin-3-yl)-1H-pyrazol-4-yl)-N-ethyl-3-((3,3,3-trifluoropropyl)sulfinyl) propanamide (hereinafter “compound II”) with about 0.000156 weight % of chlorpyrifos.
The bioassays were performed for different active compounds. Cabbage plants with about two to three new-growth-true leaf stage were treated with different active compounds using a track sprayer application at 400 L/Ha spray volume. Three second instar diamondback moth, Plutella xylostella, were infested onto each leaf disc. The percent control of the pesticidal composition against diamondback moth, Plutella xylostella, was determined as the “Observed” action, and compared to those obtained by using about 0.0025 weight % of compound II, and using about 0.0025 weight % of chlorpyrifos alone. The “Colby's Expected Action” was calculated using Colby's equation as discussed previously.

[2] = test system: Western flower thrips, Frankliniella occidentalis; experiment: Cotton leaf punch dip bioassay against Western flower thrips; conditions: single active
Experimental: (§1) The active compositions were formulated in a 10% acetone solution with 0.025% non-ionic surfactant, TWEEN® 20. Cotton leaf punches were used for bioassays. Two cotton leaf punches were placed in each solution and left there for 10 minutes. Leaves were taken out of the solution, placed on a piece of filter paper in separated Petri dishes, and air dried. Each leaf disc was considered a repetition. Five nymphs of Western flower thrips, Frankliniella occidentalis, were infested per repetition.
as §1, with “compounds” for “compositions”

[3] = test system: plant bugs, Lygus hesperus; experiment: Bean piece dip bioassay against Western plant bugs; conditions: single active
Experimental: (§2) The active compositions were formulated in a 10% acetone solution with 0.025% non-ionic surfactant, TWEEN® 20. Bean pieces (about one inch-long) were used for the tests. Four bean pieces were placed in each tested active solution and left there for 10 minutes. Bean pieces were taken out of the active solution, and each piece was placed in a well in a 32-well tray and allowed to air dry. Three third-instar nymphs of Western plant bugs, Lygus hesperus, were infested into each well.

[4] = test system: brown stink bug, Euschistus heros; experiment: Bean piece dip bioassay against brown stink bug; conditions: single active
Experimental: as §2, with “brown stink bug, Euschistus heros,” for “Western plant bugs, Lygus hesperus,”
A pesticidal composition formulated in a 10% acetone solution with 0.025% non-ionic surfactant, TWEEN® 20 were tested against brown stink bugs, Euschistus heros, according to the procedure described in example 8A.

[5] = 0.04 weight %, third-instar nymphs

SMILES	% Control Three Days After Treatment [1]	% Control Three Days After Treatment ([1]; listed as chlorpyrifos)	% Control Three Days After Treatment ([2]; 0.0000049 weight %)	% Control Three Days After Treatment ([2]; 0.0000049 weight %, listed as chlorpyrifos)	% Control Three Days After Treatment ([2]; 0.0000195 weight %)	% Control Three Days After Treatment ([2]; 0.0003125 weight %)	% Control Three Days After Treatment ([2]; 0.00125 weight %)	% Control Three Days After Treatment ([3]; 0.0003125 weight %)	% Control Four Days After Treatment ([4]; 0.000156 weight %)	% Control Four Days After Treatment ([4]; 0.000156 weight %, listed as chlorpyrifos)	% Control Four Days After Treatment ([4]; 0.000625 weight %)	% Control Three Days After Treatment ([2]; 0.04 weight %, nymphs)	% Control Four Days After Treatment [4, 5]	% Control Three Days After Treatment ([2]; 0.04 weight %, nymphs, listed as compound II)	% Control Three Days After Treatment [3, 5]
CCOP(=S)(OCC)Oc1nc(Cl)c(Cl)cc1Cl [Chlorpyrifos, O,O-diethyl O-3,5,6-trichloropyridin-2-yl phosphorothioate]	0%	substantially no pesticidal activity	0%	no activity	20%	70%	80%	50%	0%	no activity	92%				
CCN(C(=O)CCSCCC(F)(F)F)c1cn(-c2cccnc2)nc1Cl [Compound I, N-(3-chloro-1-(pyridin-3-yl)-1H-pyrazol-4-yl)-N-ethyl-3-((3,3,3-trifluoropropyl)thio)propanamide]												20%	no activity		
CCN(C(=O)CC[S+]([O-])CCC(F)(F)F)c1cn(-c2cccnc2)nc1Cl (centres unmarked) [Compound II, N-(3-chloro-1-(pyridin-3-yl)-1H-pyrazol-4-yl)-N-ethyl-3-((3,3,3-trifluoropropyl)sulfinyl)propanamide]	substantially no pesticidal activity											0%		no activity	0%
